{
  "source": "patent US7820692B2",
  "about": "“Tetrahydro isoquinoline derivatives, preparation methods and medicinal uses thereof” (China Pharmaceutical University, priority 2006, dated 2010)",
  "key": {"[1]": {"biological_target": "κ-opioid receptor (Homo sapiens, UniProt P41145)", "experiment": "Radioligand receptor binding assay, competition with [3H]diprenorphine, κ-receptor", "procedure": "(§1) The experiment test tubes are divided into total binding tubes and non-specific binding tubes, and several groups of sample tubes added with competitive ligand in different concentrations are provided. The total binding tube is added with expressed membrane receptor protein equivalent to 20 μg and [^3H] diprenorphine (0.5 nM) (1.44 Pbq/mol broad spectrum opioid antagonist, Amersham), the corresponding non-specific binding tubes are further added with 1 μM Naloxone (broad spectrum opioid antagonist, Sigma), the sample tubes are added with different concentrations compounds which are to be screened, the final volume is regulated to 100 μl with 50 mM Tris(Amresco)-HCl (pH 7.4). Incubation is performed at 30° C. for 30 min, and the tubes are placed into ice water to stop reaction. Negative pressure filter is performed in Millipore sample collector via GF/(Whatman) glass fiber filter paper. Ice cold 50 mM Tris-HCl (pH 7.4) is used to wash the filter paper for three times, each for 4 ml; Dry the filter paper and place it in 0.5 ml Eppendorff tube, and add 0.5 ml of lipophilic scintillator liquid (Reagent No. 1 Factory Of Shanghai Chemical Reagent Co. Ltd). Beckman LS 6500 multifunctional liquid scintillation counter is adopted for measuring radiation intensity, calculating inhibition rate is calculated, each concentration has three duplicated tubes, and each tube is independently tested for 3-4 times.\n(§2) IC50 value is calculated by software Prism 4.0.\n(§3) Ki=IC50/(1+[L]/Kd), ([L] is the concentration of added marked ligand, and Kd is equilibrium dissociation constant of radioligand)."}, "[2]": {"biological_target": "μ-opioid receptor (Homo sapiens, UniProt P35372)", "experiment": "Radioligand receptor binding assay, competition with [3H]diprenorphine, μ-receptor", "procedure": "as §1, §2, §3"}, "[3]": {"test_system": "Kuming mice", "experiment": "Mice hot plate method analgesic test", "format": "in vivo", "procedure": "(§4) Analgesic efficacy of the subject compound is determined by using model derived from mice hot plate method and mice writhing method (Methodology of Pharmacological Experiment, edition II, Xu Shuyun, People Medical Publishing Company, 1991).\nExperiment Animal: Kuming Mice (Female, 18-22 g)\n(§5) • (1) Selection of normal mice: the test room temperature is controlled at about 22° C., temperature of the hot plate of an pain threshold dector is regulated to 55° C., the duration from the moment the mice is put on the hot plate to the moment the mice start to lick the hind paw is recorded as pain threshold value, the test is repeated twice at interval of 20 min, and the mice with average pain threshold value no more than 30 sec is qualified mice. • (2) Experimental mice: the qualified mice are randomly divided into groups each having 10 mice, and subjected to subcutaneous injection. • Each group is tested for mice pain response time once every 5, 15, 30, 50, and 60 minute after administration, and the medicine is believed to be effective which response time beyond 1 min. • Mice Writhing Assay • I-6 is administered via subcutaneous injection, then 0.6% acetic acid solution (10 ml/kg) is administered after 30 min, and the number of the mice writhing within 15 min is recorded. 3."}, "[4]": {"test_system": "Kuming mice", "experiment": "Mice writhing assay (acetic acid) analgesic test", "format": "in vivo", "settings": "subcutaneous injection, 0.6% acetic acid after 30 min, writhing within 15 min", "procedure": "as §4, §5"}, "[5]": {"experiment": "Acute toxicity test of compound I-6", "format": "in vivo, mice", "settings": "both sexes, Kunming, mouse, in vivo, intraperitoneal; peritoneal administration, mice, observation two weeks", "procedure": "(§6) Acute toxicity of compound I-6 is determined according to Methodology of Pharmacological Experiment, edition II, Xu Shuyun (People's Medical Publishing House, 1991), and An Introduction of the Assessment for Novel Drugs, edition II, Qin Boyi (People's Medical Publishing House, 1999).\n(§7) Kunming mice (body weight 18-22 g, female 6 weeks old, male 4-5 weeks) are provided, randomly divided into groups each having 20 mice (half female, half male). The mice are subjected to adaptive feeding for 1-2 days before administration. Compound I-6 is administered peritoneally for 4 dosage groups, 60 mg/kg, 50 mg/kg, 40 mg/kg, and 30 mg/kg. The mice are normally fed after administration, their conditions, such as drinking, feeding, excreting, activity, and hair color, are observed everyday, their body weights are weighed every other day, and the observation lasts for two weeks."}, "[6]": {"test_system": "Kunming mice", "experiment": "Acute toxicity test of compound I-6", "format": "in vivo", "settings": "peritoneal administration at 30 mg/kg", "procedure": "as §6, §7"}, "[7]": {"test_system": "Kuming mice", "experiment": "Analgesic tolerance test (hot plate, 9 days administration)", "format": "in vivo", "settings": "I-6 25 μg/kg subcutaneous injection Day 1-9, hot plate", "procedure": "Kuming mice (18-20 g, male) are selected for test, and divided into physiological saline group, morphine group, and I-6 group.\nphysiological saline group: subcutaneous administration, 0.2 mL for each mice.\nMorphine group: Day 1-3, subcutaneous injection, 7 mg/kg • Day 4-7, subcutaneous injection, 10 mg/kg • Day 8-9, subcutaneous injection, 15 mg/kg I-6 group: Day 1-9, subcutaneous injection, 25 μg/kg\nHot plate method in mice is adopted as model, administration lasts for 9 days, analgesic effects before and after administration are determined every day, and if analgesic effect is attenuated after continuous administration of 3 days, the drug concentration will be increased, and if analgesic effect don't change, the drug concentration will not be changed."}, "[8]": {"test_system": "Kuming mice", "experiment": "Physical dependence test after chronic administration (Naloxone-induced jumping and weight reduction)", "format": "in vivo", "settings": "escalating 50-300 μg/kg s.c. twice daily for 10 days, then Naloxone 3 mg/kg peritoneally", "procedure": "Kuming mice (18-20 g, male) are selected, and divided into physiological saline group, morphine group, and I-6 group.\nphysiological saline group: subcutaneous injection, 0.2 mL for each mice, continuous administration for 10 days.\n(§8) morphine group: subcutaneous injection, administration according to an escalating dose schedule, 20, 40, 60, 80, 100 mg/kg, continuous administration for 10 days, two injections per day at 8 hours interval, administration with escalating concentration, and 100 mg/kg is maintained from the fifth injection until Day 10.\nas §8, with “I-6” for “morphine”, “50, 100, 150, 200, 300 μg/kg,” for “20, 40, 60, 80, 100 mg/kg,”, “300 μg/kg” for “100 mg/kg”\n2 hours after the end administration on the Day 10, each group is peritoneally administered with Naloxone 3 mg/kg, and jump times and weight reduction of mice within 20 min in each group are observed."}, "[9]": {"test_system": "Kuming mice", "experiment": "Influence of compound I-6 on physical dependence caused by morphine", "format": "in vivo", "settings": "I-6 300 μg/kg peritoneally 10 min before morphine every day", "procedure": "Kuming mice (18-20 g, male) are selected and divided into physiological saline group, morphine group, and I-6+morphine group.\nphysiological saline group: subcutaneous injection, 0.2 mL for each mouse, continuous administration for 10 days.\nas §8\nI-6+morphine group: subcutaneous injection of morphine according to 20, 40, 60, 80, 100 mg/kg, continuous administration for 10 days, two injections per day at 8 hours interval, administration with escalating concentration, and 100 mg/kg is maintained from the fifth injection until Day 10; 300 μg/kg of compound I-6 is administered peritonally 10 min before administration of morphine every day.\n2 hours after the end administration on Day 10, each group is peritoneally administered with Naloxone 3 mg/kg, and jump times and weight reduction of mice within 20 min in each group are observed."}},
  "data": [
    {"smiles": "O=C1CC(C(=O)N2CCc3ccccc3C2CN2CCCC2)c2cc(Cl)ccc21", "note": "(stereo not shown) [I-6, 1-(pyrrolidine-1-methyl)-2-(6-chloro-2,3-dihydro-inden-3-keto-1-carbonyl)-1,2,3,4-tetrahydroisoquinoline]", "values": [
      {"measurement": "Ki", "setting": "[1]; Ki=IC50/(1+[L]/Kd)", "value": 0.0299, "unit": "nM"},
      {"measurement": "dpm", "setting": "[1]; competition binding with κ-receptor, compound at 1 × 10^−5 M, [3H]diprenorphine 0.5 nM", "value": 201.00, "unit": "dpm"},
      {"measurement": "IC50", "setting": "[1]; competition binding, κ-opioid receptor", "value": 0.105, "unit": "nM"},
      {"measurement": "inhibition at 10 µM", "setting": "[1]; compound at 1 × 10^−5 M, read-out: inhibition rate %", "value": 100, "unit": "%"},
      {"measurement": "Ki", "setting": "[2]; Ki=IC50/(1+[L]/Kd)", "value": 668, "unit": "nM"},
      {"measurement": "IC50", "setting": "[2]; competition binding, μ-opioid receptor", "value": 2000, "unit": "nM"},
      {"measurement": "receptor selectivity μKi/κKi", "setting": "[2]; ratio of μ Ki to κ Ki", "value": 22341},
      {"measurement": "analgesic efficacy compared with morphine", "setting": "[3]; mice hot plate method and mice writhing method", "value": "powerful analgesic efficacy"},
      {"measurement": "Analgesic experiment result, Mice hot plate method", "setting": "[3]; subcutaneous injection, hot plate 55° C., value with range in brackets", "value": "25.000(18.675-33.467) ug/kg"},
      {"measurement": "Analgesic experiment result, Mice writhing assay", "setting": "[4]", "value": "3.313(1.775-6.183) ug/kg"},
      {"measurement": "LD50 at 2 weeks", "setting": "[5]", "value": 40.1, "unit": "mg/kg"},
      {"measurement": "influence on drinking, feeding, excreting, activities and hair color", "setting": "[6]", "value": "no influence"},
      {"measurement": "analgesic tolerance", "setting": "[7]", "value": "does not produce significant tolerance phenomena"},
      {"measurement": "physical dependence after continuous administration", "setting": "[8]", "value": "causes no physical dependence like morphine"},
      {"measurement": "effect on physical dependence caused by morphine", "setting": "[9]; 10 days", "value": "can resist physical dependence caused by morphine"},
      {"measurement": "jump times of Naloxone-induced mice", "setting": "[9]; Naloxone 3 mg/kg on Day 10", "value": "significantly reduce jump times"}
    ]}
  ]
}
